Results taken from a melting point compilation (Tetko et al.).

melting point | Compound
147 to 148 °C | CC(=O)OC1CC[C@@]2(C)C(=CC[C@@H]3[C@@H]2CC[C@@]2(C)[C@H]3CC[C@]2(O)C#Cc2ccccc2)C1 (stereo partly specified)
200 °C | CC(=O)Nc1ccc([N+](=O)[O-])cn1
120 °C | COc1cc(C(c2ccc(C)s2)c2ccc(C)s2)c([N+](=O)[O-])cc1OC
187 °C | O=[N+]([O-])c1cccc2cn[nH]c12
158 °C | FC(F)(F)c1cc(-c2cccs2)nc2cc(-c3cccs3)nn12
124 to 126 °C | Cc1oc(C(=O)NN)nc1-c1ccccc1
108 °C | Cc1cc(N=Nc2ccccc2)c(C(C)C)cc1N=Nc1ccccc1
175 °C | O=C(O)c1cc(I)ccc1Br
37 °C | CCOC(=O)c1cc(C)n(Cc2ccccc2)n1
201 to 203 °C | Cc1nc(-c2ccccc2)c(C(=O)O)s1
162 °C | CC(C)NCC(O)COc1cccc2ccccc12 (stereo unspecified)
20 °C | CCCCCCCCc1ccc(N)cc1
62 °C | CC(C)(C)Oc1ncc(Br)cn1
-55 °C | CCCCCCOC(=O)CCCCC
58 °C | C[Si](C)(C)C#Cc1cccc(C#C[Si](C)(C)C)c1
357 °C | Cn1cnc2c1c(=O)[nH]c(=O)n2C
90 to 91 °C | O=S(=O)(c1ccccc1)n1cc(CO)c2ccccc21
86 °C | CCn1c(-c2ccccc2)cc2ccccc21
140 °C | C/C(=N\c1ccccc1C)c1c(O)c2ccccc2n(-c2ccccc2)c1=O
264 °C | CC(=O)NC1C(Oc2ccc([N+](=O)[O-])cc2)OC(CO)C(O)C1O (stereo unspecified)
84 °C | COc1ccc(C#N)c(F)c1F
38.5 °C | N#Cc1cc(C(F)(F)F)ccc1Cl
181 to 182 °C | Cc1c(O)ccc2c1OC(C)(C)CC2=O
186 °C | O=C(O)c1sccc1Cl
81 to 85 °C | ClCc1nnc(-c2ccc(Cl)cc2)o1
68 °C | CC(C)(C)NCC(O)COc1ccccc1C1CCCC1 (stereo unspecified)

melting point | Compound
102 to 104 °C | Nc1ccc(N2CCOCC2)c(Cl)c1
290 °C | Cc1cc2nc3c(=O)[nH]c(=O)nc-3n(CC(O)C(O)C(O)CO)c2cc1C (stereo unspecified)
184 °C | Cc1ccc2cnn(C)c2n1
158 to 160 °C | C=CCNc1nc(N)c(C(N)=O)s1
48 to 56 °C | COc1ccc2c(c1)CC2C#N (stereo unspecified)
180 °C | Cc1ccc(CNC(=O)c2cc([N+](=O)[O-])cc([N+](=O)[O-])c2)c(C)c1
77.5 °C | COc1ccc2c(OC(C)=O)c(OC)c(OC)c(OC(C)=O)c2c1
189 to 190 °C | O=C(O)c1ccc(-n2ccc(C(F)(F)F)n2)cc1
177 to 178 °C | Cc1c(CC(=O)O)sc2ccc(Cl)cc12
69 °C | Cc1ccc(Oc2ccc([N+](=O)[O-])cc2)cc1
-139 °C | C=CC/C=C/C
85 °C | CC(=O)CC(=O)c1cccnc1
178 °C | NC(=O)/C(=C\c1ccc(F)cc1)c1nc2ccccc2s1
272 to 274 °C | CCOC(=O)C12C(c3cc(Br)ccc3OP1(=O)OCC)C1(C(=O)OCC)C2c2cc(Br)ccc2OP1(=O)OCC (stereo unspecified)
121 to 123 °C | Cc1ccccc1C1(C#N)Cc2ccccc2C(=O)O1 (stereo unspecified)
103 to 105 °C | N#Cc1ccc(-n2cccc2)cc1
52 to 53 °C | CN(C)c1nc2ccccc2cc1C=O
154 to 157 °C | CCOC(=O)c1cc2cc(C=O)c(N)cc2[nH]c1=O
275 °C | Cc1cc(=O)oc2cc(O)c(O)cc12
168 °C | N#C/C(=N/Nc1ccc(Cl)cc1)c1nc(-c2ccccc2)cs1
155 °C | Ic1ccc(I)nc1
55.5 °C | Clc1ccc(Cc2ccc(Cl)cc2)cc1
151 °C | Cc1cc(S(N)(=O)=O)ccc1Br
57 °C | CCCCCC(=O)c1ccc(O)cc1O
297 to 305 °C | CCOC(=O)c1cnc2ccc(OC(F)(F)F)cc2c1O
239 to 240 °C | N#Cc1c(O)ccc([N+](=O)[O-])c1O

melting point | Compound
208 °C | S=C(Nc1cccc2ccccc12)Nc1cccc2ccccc12
168 °C | S=C(/N=N/c1ccccc1)NNc1ccccc1
193 °C | Oc1ccc2ccc(O)cc2c1
118 to 120 °C | CC12CC3CC(Br)(C1)CC(C(=O)O)(C3)C2 (stereo unspecified)
205 to 208 °C | CCN(CC)c1ccc2cc(-c3nc4ccccc4s3)c(=O)oc2c1
124 °C | Clc1nccc2ccc(Br)cc12
31.5 °C | CCCCCCCNCCCCCCC
183 to 185 °C | Cc1cc(Oc2ccc(C(N)=NO)cc2[N+](=O)[O-])cc(C)c1Cl
101 to 105 °C | CN(CC(=O)O)C(=O)c1ccccc1
-25 °C | O=P(O)(O)OCC(O)CO (stereo unspecified)
66 °C | CC(=O)c1csc(-c2ccc(C(F)(F)F)cc2)n1
125 °C | Cc1cc(Cn2nc(C)cc2C)c(O)c(Cn2nc(C)cc2C)c1
115 °C | Cc1c(C(=O)Cl)cnn1-c1ccc(Cl)cc1
38 °C | CC(C)(C)OC(=O)N1CCCC(=O)C1
183 to 184 °C | Cc1cc(C)nc(NNC=Cc2ccc([N+](=O)[O-])cc2)n1
66 °C | C#Cc1ccc(Br)cc1
192 °C | Cn1c(=O)c(C2=NNC(=O)C2=NNc2c(Br)cc([N+](=O)[O-])cc2[N+](=O)[O-])c(O)c2ccccc21
187 °C | CNc1ccc(NCCO)c2c1C(=O)c1ccccc1C2=O
111 °C | Cc1c(-c2ccccc2)c2ccccc2n1C
75 °C | CCN(CC)CCn1cnc2c1c(=O)n(C)c(=O)n2C
35 °C | COc1ccc(C=O)cc1F
119 to 120 °C | CC(C)(C)NC(=O)NN
145 °C | COC(CNC(c1ccccc1)C(O)c1ccccc1)OC (stereo unspecified)
35 °C | Cc1ccc(C=O)c(Br)c1

Compound | melting point
Cc1ccc(C)c(N2CCNCC2)c1 | 45 °C
CCNc1cc2oc(=O)cc(C(F)(F)F)c2cc1C | 184 °C
COc1cc2c(c3oc(=O)c4c(c13)CCOC4=O)C1CCOC1O2 (stereo unspecified) | 237 to 240 °C
N#Cc1ccc(N2CCNCC2)nc1 | 131 °C
O=C(O)c1cc(Cl)nc(Cl)c1 | 210 to 211 °C
O=C(Cl)c1ccc(CCl)cc1 | 29 to 33 °C
CC(C)N(C(=O)CCl)c1ccccc1 | 77 °C
O=C(c1ccccc1)C(F)(F)F | -40 °C
Cc1cc(Br)c(O)c(Br)c1 | 50 °C
CNC(=O)Oc1ccc2c(c1)C1(C)CCN(C)OC1N2C (stereo unspecified) | 129 °C
CC1Cc2c(Cl)cc(C(=O)NC(Cc3ccccc3)C(=O)O)c(O)c2C(=O)O1 (stereo unspecified) | 169 °C
N#CC(C#N)=Cc1ccc(O)cc1 | 189 °C
C=Cc1ccc(Cl)cc1 | 15.9 °C
CC12CCC3C(CCC4=CC(=O)C=CC43O)C1CCC2=O (stereo unspecified) | 219 to 221 °C
CC(C)COC(N)=O | 67 °C
